Measurements reported in US10808008B2, “Aromatic-cationic peptides and uses of same” (Cornell University, priority 2012, dated 2020).
Like-named read-outs stand apart in the source and are kept apart here.

Key:
[1] = test system: isolated rat kidney mitochondria / cytochrome c-deficient mitoplasts; test: Fluorescence quenching by isolated mitochondria or cytochrome c-deficient mitoplasts; assay type: binding
Protocol: The quenching by cytochrome c was not displaced by sequential additions of bovine serum albumin (FIG. 12C, A+arrows) (500 μg/ml). […] Accordingly, aromatic-cationic peptides of the present disclosure are useful for the prevention or treatment of diseases or disorders characterized by dysregulation of cytochrome c.
Uptake of [atn]SS-02 by isolated mitochondria or cytochrome c-deficient mitoplasts was determined by fluorescence quenching of [atn]SS-02 (λex/λem=320/420) upon addition of a fresh mitochondrial or mitoplast suspension (0.35 mg).
Mitochondria were isolated from the kidney of male Sprague-Dawley rats (Charles River Laboratories International, Inc., Wilmington, Mass.) weighing 250 to 300 g. Excised kidneys were cut and incubated in wash buffer (200 mM mannitol, 10 mM sucrose, 5 mM HEPES, 1 g/L fatty-acid-free BSA, to pH to 7.4 with KOH) on ice for 10 minutes. Samples were washed 2 times in isolation buffer (wash buffer with 1 mM EGTA), homogenized for 3 minutes, and then centrifuged in 20 ml of isolation buffer at 900×g for 10 minutes. The white fatty acid layer was then removed and the […]. The supernatant was centrifuged at 11,000×g for 10 minutes, and the pellet was re-suspended in 800 μl of wash buffer and kept on ice for further analysis.
Mitoplasts deficient in cytochrome c were prepared by first treating fresh or once-frozen mitochondria with 3.3 mg/ml digitonin for 45 minutes on ice, in order to remove the mitochondrial outer membrane. To remove electrostatically-bound cytochrome c, […] pH 7.4 was then added to the mix and centrifuged at 19,000×g for 30 minutes. The pellet was collected and re-dissolved in wash buffer and stored on ice until use. Only mitoplast preparations that responded to the addition of 200 nM exogenous cytochrome c by 4-5 fold increase in mitochondrial respiration (oxygen consumption) were used in the study. […]

isolated mitochondria = test: ATP synthesis in isolated mitochondria; assay type: biochemical, rat
Protocol: Fresh mitochondria were isolated from rat kidney as described previously. Electron flux was measured by O2 consumption (Oxygraph Clark electrode) as previously described using different substrates for C1 (glutamate/malate), C2 (succinate), and C3 (TMPD/ascorbate). Assays were carried out under low substrate conditions in order to avoid saturating the enzyme reactions. ATP production in isolated mitochondria was determined kinetically using the luciferase method (Biotherma) in a 96-well luminescence plate reader (Molecular Devices). The initial maximal rate for ATP synthesis was determined over the first minute.
The rate of mitochondrial ATP synthesis was determined by measuring ATP in respiration buffer collected from isolated mitochondria 1 min after addition of […] (FIG. 6). ATP was assayed by HPLC. All experiments were carried out in triplicate, with n=3. […] Accordingly, aromatic-cationic peptides of the present disclosure are useful for increasing ATP synthesis in mitochondria and for treating diseases or disorder characterized by dysregulation of ATP synthesis.
SS-20 or SS-31 was added at 100 μM concentrations to isolated mitochondria in respiration buffer containing 0.5 mM succinate (complex II substrate) and 400 μM ADP. Similar increases in O2 consumption were observed when low concentrations of complex I substrates (glutamate/malate) were used (data not shown). […] Accordingly, targeting SS-20 and SS-31 to the IMM can facilitate electron flux in the electron transport chain and improve ATP synthesis, especially under conditions of reduced substrate supply.
Increase in electron flux in the electron transport chain can either result in increase in ATP synthesis or increase in electron leak and generation of free radicals. ATP synthesis in isolated mitochondria was assayed by HPLC. […] Accordingly, aromatic-cationic peptides of the present disclosure are useful for increasing ATP synthesis in mitochondria and for treating diseases or disorder characterized by dysregulation of ATP synthesis.

cytochrome c = cytochrome c (Equus caballus, UniProt P00004); test: Circular dichroism of Soret band of cytochrome c; assay type: biochemical
Protocol: Circular dichroism (Olis spectropolarimeter, DSM20) was carried out to monitor Soret band (negative peak at 415 nm), as a probe for the π-π* heme environment in cytochrome c (FIG. 4). […] The increase in π-π* interaction around the heme would enhance electron tunneling which would be favorable for electron diffusion. Accordingly, aromatic-cationic peptides of the present disclosure are useful for the prevention or treatment of diseases or disorders characterized by dysregulation of cytochrome c, and to induce novel π-π interactions around cytochrome c heme.

cytochrome c, sequence (P00004 2-105 limits assumed): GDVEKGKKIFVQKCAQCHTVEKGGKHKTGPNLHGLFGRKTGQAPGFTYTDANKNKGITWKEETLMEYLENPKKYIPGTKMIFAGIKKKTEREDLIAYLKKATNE

| Substance | quenching of fluorescence by cytochrome c-depleted/deficient mitoplasts versus mitochondria [1] | quenching of fluorescence by isolated mitochondria ([1]; 10 μM peptide, 0.2 mg mitochondria) | quenching of fluorescence by cytochrome c-depleted/deficient mitoplasts versus mitochondria ([1]; listed as [atn]SS-02) | rate of ATP synthesis (isolated mitochondria; 1 min after addition of 400 mM ADP, HPLC) | ATP synthesis (isolated mitochondria; assayed by HPLC (Example 18)) | rate of ATP production (isolated mitochondria; mitochondria energized with low concentrations of succinate) | position of Soret band negative peak after peptide (415 nm before) (cytochrome c) |
| --- | --- | --- | --- | --- | --- | --- | --- |
| 2′,6′-Dmt-D-Arg-Phe-(atn)Dap-NH2 [SS-19] | significantly reduced | quenched by sequential addition of 0.2 mg isolated rat renal kidney mitochondria | appreciable in cytochrome c-deficient mitoplasts but was less than in intact mitochondria | – | – | – | – |
| D-Arg-2′,6′-Dmt-Lys-Phe-NH2 [SS-31] | – | – | – | dose-dependently increased the rate of ATP synthesis | dose-dependently increased ATP synthesis | significant increase in the rate of ATP production | 440 nm |
